This note sets out measurements from patent EP2676962A1, “Derivatives of 1-aminoalkylphosphonate diaryl esters, method of 1-aminoalkylphosphonate diaryl ester derivatives preparation and their application” (priority 2012, dated 2013).

Each structure is given as a SMILES string. Read-outs that look alike come from different tables or passages of the source.

Holding throughout (format): biochemical
Assay [1] addresses T1, human neutrophil elastase (HNE) (Homo sapiens, UniProt P08246).
T1 sequence (P08246 30-267): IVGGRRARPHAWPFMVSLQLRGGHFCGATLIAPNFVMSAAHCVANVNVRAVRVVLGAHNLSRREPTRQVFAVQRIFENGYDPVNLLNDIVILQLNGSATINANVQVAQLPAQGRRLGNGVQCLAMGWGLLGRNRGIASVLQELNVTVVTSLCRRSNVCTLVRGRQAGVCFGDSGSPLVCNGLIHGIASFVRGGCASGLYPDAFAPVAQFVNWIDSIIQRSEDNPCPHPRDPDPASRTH
As to the kind of experiment: Inhibitory activity toward human neutrophil elastase, fluorogenic substrate, microplate reader. The protocol:
(§1) The biological activity of peptidyl derivatives of phosphonic analogs of valine, alanine, phenylalanine, 4-guanidinephenylglycine, leucine, and 1-aminobutyric acid, containing the N-terminal biotin residue were tested for their ability to inhibit proteolytic activity of selected serine proteases, and the control cysteine proteases. All tests were performed using a microplate reader. As enzyme substrates fluorescent peptides were used. The method to measure the activity of the compounds obtained are described below for each of the enzymes tested: human neutrophil elastase (HNE), porcine pancreatic elastase (PPE), subtilisin (Sub), cathepsin G (CatG), proteinase 3 (PR3), chymotrypsin (ChTry) trypsin (Try), papain (Pap) and cathepsin L (CatL). Measurement of the inhibitory activity was performed at different inhibitor concentrations ranging from 12.5 nM to 2000nm.
Measurement of inhibitory activity of compounds toward human neutrophil elastase (HNE).
The inhibitory activity assay is performed at 37°C in 0,01M HEPES, 0,5M NaCl, 0,03% Triton X-100 buffer, pH 7,5, within 10 min after initial pre-incubation of the enzyme with inhibitor tested at 37°C for 10 min. The enzyme concentration is 0,0025U/ml. Substrate used Me-Suc-Ala-Ala-Pro-Val-AFC at 25µM. Measurement is taken at an excitation wavelength of 400nm and 505nm emission.
(§2) The IC50 value is the concentration of inhibitor required to inhibit half of the enzyme activity after 10 minutes incubation.

For a further assay, the target named is chymotrypsin (ChTry) (Bos taurus, UniProt P00766). Briefly: Inhibitory activity toward chymotrypsin, fluorogenic substrate, microplate reader. To be noted: 10 min pre-incubation at 37°C, pH 7,5, Suc-Ala-Ala-Pro-Phe-AMC 5µM; NI = brak inhibicji (no inhibition). As for the experimental part: as §1
Measurement of inhibitory activity of compounds toward […] (ChyTry).
The inhibitory activity assay is performed at 37°C in 0,1M HEPES, 0,5M NaCl buffer, pH 7,5, within 10 min after initial pre-incubation of the enzyme with inhibitor tested at 37°C for 10 min. The enzyme concentration is 3nM. Substrate used Suc-Ala-Ala-Pro-Phe-AMC at 5µM. Measurement is taken at an excitation wavelength of 350nm and 460nm emission.
as §2

Another assay deals with subtilisin (Sub) (Bacillus licheniformis, UniProt P00780). Briefly: Inhibitory activity toward subtilisin, fluorogenic substrate, microplate reader. To be noted: for Sub Kobs/[I]: 10 min pre-incubation at 37°C, pH 7,5, Me-Suc-Ala-Ala-Pro-Phe-AMC 5µM, NI = brak inhibicji (no inhibition). The protocol: as §1
Measurement of inhibitory activity of compounds toward subtilisin (Sub).
The inhibitory activity assay is performed at 37°C in 0,05M Tris-HCl, 1M NaCl, 0,01% Triton X-100 buffer, pH 7,5, within 10 min after initial pre-incubation of the enzyme with inhibitor tested at 37°C for 10 min. The enzyme concentration is 5nM. Substrate used Me-Suc-Ala-Ala-Pro-Phe-AMC at 5µM. Measurement is taken at an excitation wavelength of 350nm and 460nm emission.
as §2

Assay [2] deals with porcine pancreatic elastase (PPE) (Sus scrofa, UniProt P00772). Briefly: Inhibitory activity toward porcine pancreatic elastase, fluorogenic substrate, microplate reader. The protocol: as §1
Measurement of inhibitory activity of compounds toward porcine pancreatic elastase (PPE).
The inhibitory activity assay is performed at 37°C in 0,01M Tris-HCl, 0,05% Triton X-100 buffer, pH 8,5, within 10 min after initial pre-incubation of the enzyme with inhibitor tested at 37°C for 10 min. The enzyme concentration is 60nM. Substrate used Me-Suc-Ala-Ala-Pro-Val-AMC at 100µM. Measurement is taken at an excitation wavelength of 350nm and 460nm emission.
as §2

Another assay deals with T2, proteinase 3 (PR3) (Homo sapiens, UniProt P24158).
T2 sequence (P24158 28-248): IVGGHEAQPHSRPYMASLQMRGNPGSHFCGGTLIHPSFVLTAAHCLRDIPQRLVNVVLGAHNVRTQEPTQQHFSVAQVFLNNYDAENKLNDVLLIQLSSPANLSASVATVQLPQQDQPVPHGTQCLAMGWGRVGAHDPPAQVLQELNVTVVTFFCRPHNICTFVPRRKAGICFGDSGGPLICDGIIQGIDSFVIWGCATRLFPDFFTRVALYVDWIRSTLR
As to the kind of experiment: Inhibitory activity toward proteinase 3, fluorogenic substrate, microplate reader. The protocol:
as §1
Measurement of inhibitory activity of compounds toward proteinase 3(PR3).
The inhibitory activity assay is performed at 37°C in 0,1M Tric-HCl, 0,5M NaCl buffer, pH 7,5, within 10 min after initial pre-incubation of the enzyme with inhibitor tested at 37°C for 10 min. The enzyme concentration is 17nM. Substrate used Abz-Tyr-Tyr-Abu-Anb-NH2 at 30µM. Measurement is taken at an excitation wavelength of 325nm and 400nm emission.
as §2

The target in another assay is T3, cathepsin G (CatG) (Homo sapiens, UniProt P08311).
T3 sequence (P08311 21-244): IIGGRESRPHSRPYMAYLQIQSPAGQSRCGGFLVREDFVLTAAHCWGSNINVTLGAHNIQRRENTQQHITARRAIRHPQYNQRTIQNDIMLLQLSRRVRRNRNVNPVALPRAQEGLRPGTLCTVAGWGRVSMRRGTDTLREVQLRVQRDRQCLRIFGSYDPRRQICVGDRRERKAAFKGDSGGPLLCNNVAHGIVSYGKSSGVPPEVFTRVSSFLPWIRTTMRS
As to the kind of experiment: Inhibitory activity toward cathepsin G, fluorogenic substrate, microplate reader. As for the experimental part:
as §1
Measurement of inhibitory activity of compounds toward cathepsin G (CatG).
The inhibitory activity assay is performed at 37°C in 0,1M Tric-HCl, 0,5M NaCl buffer, pH 7,5, within 10 min after initial pre-incubation of the enzyme with inhibitor tested at 37°C for 10 min. The enzyme concentration is 100nM. Substrate used MCA-Phe-Val-Thr-Gnf-Ser-Trp-Anb-NH2 at 2.5µM. Measurement is taken at an excitation wavelength of 325nm and 400nm emission.
as §2

Where [3] appears, read: read-out: HNE IC50, 10 min pre-incubation at 37°C, pH 7,5, Me-Suc-Ala-Ala-Pro-Val-AFC 25µM, NI = brak inhibicji (no inhibition).
Where [4] appears, read: 10 min pre-incubation at 37°C, pH 8,5, Me-Suc-Ala-Ala-Pro-Val-AMC 100µM, NI = brak inhibicji (no inhibition).
[5] abbreviates: read-out: PR3 IC50, 10 min pre-incubation at 37°C, pH 7,5, Abz-Tyr-Tyr-Abu-Anb-NH2 30µM, NI = brak inhibicji (no inhibition).
Where [6] appears, read: read-out: Cat G IC50, 10 min pre-incubation at 37°C, pH 7,5, MCA-Phe-Val-Thr-Gnf-Ser-Trp-Anb-NH2 2.5µM, NI = brak inhibicji (no inhibition).
[7] abbreviates: read-out: PPE IC50, 10 min pre-incubation at 37°C, pH 8,5, Me-Suc-Ala-Ala-Pro-Val-AMC 100µM, NI = brak inhibicji (no inhibition).
[8] abbreviates: 10 min pre-incubation at 37°C, pH 7,5, MCA-Phe-Val-Thr-Gnf-Ser-Trp-Anb-NH2 2.5µM, NI = brak inhibicji (no inhibition).
[9] abbreviates: 10 min pre-incubation at 37°C, pH 7,5, Me-Suc-Ala-Ala-Pro-Val-AFC 25µM, NI = brak inhibicji (no inhibition).

Sequence of subtilisin (Sub) (P00780 106-379): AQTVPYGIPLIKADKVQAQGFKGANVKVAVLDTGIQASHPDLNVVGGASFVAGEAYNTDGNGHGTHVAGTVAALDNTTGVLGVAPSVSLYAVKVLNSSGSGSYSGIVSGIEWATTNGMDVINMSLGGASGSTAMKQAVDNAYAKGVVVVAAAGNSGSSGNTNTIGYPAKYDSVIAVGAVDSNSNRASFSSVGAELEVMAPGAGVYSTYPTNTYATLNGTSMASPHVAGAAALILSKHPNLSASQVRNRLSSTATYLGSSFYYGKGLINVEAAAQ
Sequence of porcine pancreatic elastase (PPE) (P00772 27-266): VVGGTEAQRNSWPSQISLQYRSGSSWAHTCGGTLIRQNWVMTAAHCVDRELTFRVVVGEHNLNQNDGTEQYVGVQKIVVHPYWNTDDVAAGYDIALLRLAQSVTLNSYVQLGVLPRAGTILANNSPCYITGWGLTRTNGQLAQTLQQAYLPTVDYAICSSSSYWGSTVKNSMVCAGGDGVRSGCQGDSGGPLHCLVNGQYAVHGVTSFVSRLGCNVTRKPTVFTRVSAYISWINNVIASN

Consider `COc1ccc(OP(=O)(Oc2ccc(OC)cc2)C(CC(C)C)NC(=O)C2CCCN2C(=O)C(NC(=O)CCCCC2SCC3NC(=O)NC32)C(C)C)cc1` (centres unmarked) [Compound 5, bis(4-methoxyphenyl) (3-methyl-1-(1-(3-methyl-2-(5-(2-oxohexahydro-1H-thieno[3,4-d]imidazol-4-yl)pentanamido)butanoyl)pyrrolidine-2-carboxamido)butyl)phosphonate], for which the IC50 in assay [1] (setting [3]) was > 5000 nM; at subtilisin (Sub), 47.9 ± 0.57 nM; in assay [2] it was 5000 nM; at proteinase 3 (PR3) (setting [5]), > 5000 nM; at cathepsin G (CatG) (setting [6]), > 5000 nM. In addition, the “ChyTr Kobs/[I]” value at chymotrypsin (ChTry) is 7.4*10^3 M^-1S^-1. For the same compound, the “Sub Kobs/[I]” value at subtilisin (Sub) is 2.4*10^4 M^-1S^-1. Moreover, in assay [2] (setting [4]), the “PPE Kobs/[I]” value is reported as 2*10^2 M^-1S^-1.
With `CC(C)C(NC(=O)CCC(=O)NCCCCCNC(=O)CCCCC1SCC2NC(=O)NC21)C(=O)N1CCCC1C(=O)NC(Cc1ccccc1)P(=O)(Oc1ccccc1)Oc1ccccc1` (centres unmarked) [Compound 10, diphenyl (1-(1-(3-methyl-2-(4-oxo-4-((5-(5-(2-oxohexahydro-1H-thieno[3,4-d]imidazol-4-yl)pentanamido)pentyl)amino)butanamido)butanoyl)pyrrolidine-2-carboxamido)-2-phenylethyl)phosphonate], the IC50 in assay [1] (setting [3]) is > 5000 nM; on subtilisin (Sub), 39.9 ± 4.6 nM; in assay [2] (setting [7]), > 5000 nM; at proteinase 3 (PR3) (setting [5]), > 5000 nM; at cathepsin G (CatG) it was 300 ± 0.5 nM. Also, the “ChyTr Kobs/[I]” value at chymotrypsin (ChTry) was 7.0*10^4 M^-1S^-1. In addition, the “Sub Kobs/[I]” value on subtilisin (Sub) was 2.9*10^4 M^-1S^-1. For the same compound, the “Cat G Kobs/[I]” value at cathepsin G (CatG) (setting [8]) is listed as 3.8*10^3 M^-1S^-1.
As to `CC(C)C(NC(=O)CCCCC1SCC2NC(=O)NC21)C(=O)N1CCCC1C(=O)NC(Cc1ccccc1)P(=O)(Oc1ccccc1)Oc1ccccc1` (centres unmarked) [Compound 3, diphenyl 1-(1-(3-methyl-2-(5-(2-oxohexahydro-1H-thieno[3,4-d]imidazol-4-yl)pentanamido)butanoyl)pyrrolidine-2-carboxamido)-2-phenylethylphosphonate], the IC50 was > 5000 nM in assay [1] (setting [3]); 11.6 ± 0.2 nM on subtilisin (Sub); > 5000 nM in assay [2] (setting [7]); > 5000 nM at proteinase 3 (PR3) (setting [5]); 258 ± 33 nM against cathepsin G (CatG). In addition, the “ChyTr Kobs/[I]” value on chymotrypsin (ChTry) was 5.6*10^4 M^-1S^-1. In addition, the “Sub Kobs/[I]” value at subtilisin (Sub) is on record as 1.0*10^5 M^-1S^-1. Also, the “Cat G Kobs/[I]” value at cathepsin G (CatG) (setting [8]) is 4.5*10^3 M^-1S^-1.
On to `CC(C)C(NC(=O)CCCCC1SCC2NC(=O)NC21)C(=O)N1CCCC1C(=O)NC(C(C)C)P(=O)(Oc1ccccc1)Oc1ccccc1` (centres unmarked) [Compound 2, diphenyl 2-methyl-1-(1-(3-methyl-2-(5-(2-oxohexahydro-1H-thieno[3,4-d]imidazol-4-yl)pentanamido)butanoyl)pyrrolidine-2-carboxamido)propylphosphonate], for which the 50% inhibitory concentration (IC50) in assay [1] is 6.5 ± 0.3 nM; against subtilisin (Sub), 415 ± 17 nM; in assay [2] it was 246 ± 30.5 nM; at proteinase 3 (PR3), 728 ± 44 nM; at cathepsin G (CatG) (setting [6]), > 5000 nM. Also, in assay [1] (setting [9]), the “HNE Kobs/[I]” value is on record as 1.8*10^5 M^-1S^-1. Besides, at subtilisin (Sub), the “Sub Kobs/[I]” value is recorded as 2.8*10^3 M^-1S^-1. Besides, in assay [2] (setting [4]), the “PPE Kobs/[I]” value is reported as 4.7*10^3 M^-1S^-1. For the same compound, on proteinase 3 (PR3) (10 min pre-incubation at 37°C, pH 7,5, Abz-Tyr-Tyr-Abu-Anb-NH2 30µM, NI = brak inhibicji (no inhibition)), the “PR3 Kobs/[I]” value is recorded as 3.2*10^3 M^-1S^-1.
On to `CSc1ccc(OP(=O)(Oc2ccc(SC)cc2)C(C)NC(=O)C2CCCN2C(=O)C(NC(=O)CCCCC2SCC3NC(=O)NC32)C(C)C)cc1` (centres unmarked) [Compound 4, bis(4-(methylthio)phenyl) 1-(1-(3-methyl-2-(5-(2-oxohexahydro-1H-thieno[3,4-d]imidazol-4-yl)pentanamido)butanoyl)pyrrolidine-2-carboxamido)ethylphosphonate], for which the IC50 in assay [1] is 5.55 ± 0.25 nM; against subtilisin (Sub), 40.2 ± 0.01 nM; in assay [2], 136 ± 7.5 nM; on proteinase 3 (PR3) (setting [5]), > 5000 nM; on cathepsin G (CatG) (setting [6]) it was > 5000 nM. Also, the “HNE Kobs/[I]” value in assay [1] (setting [9]) was 2.1*10^5 M^-1S^-1. Further, the “Sub Kobs/[I]” value on subtilisin (Sub) was 2.9*10^4 M^-1S^-1. In addition, the “PPE Kobs/[I]” value in assay [2] (setting [4]) is recorded as 8.5*10^3 M^-1S^-1.

One may read the IC50 as the concentration at which inhibition is half-maximal.
